Broadly, the EC50 is the midpoint of the concentration-response curve. The low end stands for a more potent agent, the high end for a less potent agent.

Each structure is given as a SMILES string.

This assay deals with Hydroxycarboxylic acid receptor 2 (Homo sapiens, UniProt Q8TDS4). Briefly: Agonist activity at human HM74A transfected in CHO-K1 cells for 4 hrs by [35S]-GTPgammaS binding assay. The format is functional, cell-based. For orientation: GTPγS resists hydrolysis and so accumulates on activated G proteins.
Chain of Hydroxycarboxylic acid receptor 2 (Q8TDS4 whole entry): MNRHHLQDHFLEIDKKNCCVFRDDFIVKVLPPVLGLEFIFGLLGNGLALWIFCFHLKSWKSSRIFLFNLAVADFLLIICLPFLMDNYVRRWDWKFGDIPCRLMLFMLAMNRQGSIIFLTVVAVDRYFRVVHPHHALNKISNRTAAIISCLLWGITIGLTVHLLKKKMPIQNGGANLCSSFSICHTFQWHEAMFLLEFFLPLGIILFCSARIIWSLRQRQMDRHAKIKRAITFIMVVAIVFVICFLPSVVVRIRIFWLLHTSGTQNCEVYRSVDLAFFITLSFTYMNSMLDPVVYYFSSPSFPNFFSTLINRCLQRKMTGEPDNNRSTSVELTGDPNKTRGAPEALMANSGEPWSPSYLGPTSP
With `O=c1[nH]c(=O)n(CCC(F)(F)F)c2nc(Cl)[nH]c12`, the EC50 is less than 12.6 µM and the Efficacy was greater than 30%.
In the case of `O=c1[nH]c(=O)n(CCCCCCF)c2nc(Cl)[nH]c12`, the EC50 is less than 12.6 µM and the Efficacy is greater than 30%.
For `CCCCCCCCCCn1c(=O)[nH]c(=O)c2[nH]c(Cl)nc21`, the EC50 was less than 12.6 µM and the Efficacy is greater than 30%.
The corresponding values for `CCCCn1c(=O)c2[nH]c(I)nc2n(CCCC)c1=O` are less than 12.6 µM and greater than 30%.
Molecule `CCC(C)CCn1c(=O)[nH]c(=O)c2[nH]c(Cl)nc21` (racemic) had a concentration for a half-maximal effect (EC50) of less than 12.6 µM and an Efficacy greater than 30%.
The molecule `O=c1[nH]c(=O)n(CCCF)c2nc(Cl)[nH]c12` gave an EC50 of less than 12.6 µM and an Efficacy greater than 30%.
As for `CCCCCCn1c(=O)n(C)c(=O)c2[nH]c(Cl)nc21`, the EC50 is less than 12.6 µM and the Efficacy was greater than 30%.
The like results for `CCCCn1c(=O)c2[nH]c(C#N)nc2n(CCCC)c1=O` were, in that order, less than 12.6 µM and greater than 30%.
`CCCn1c(=O)n(CC#N)c(=O)c2[nH]c(Cl)nc21` had an EC50 of less than 12.6 µM and an Efficacy greater than 30%.
Molecule `CCCCn1c(=O)n(C)c(=O)c2[nH]c(Cl)nc21` gave an Efficacy greater than 30%.
Molecule `O=c1[nH]c(=O)n(CCC2CCC2)c2nc(Cl)[nH]c12` showed an EC50 of less than 12.6 µM and an Efficacy greater than 30%.
The like results for `O=c1[nH]c(=O)n(CCC2CCCCC2)c2nc(Cl)[nH]c12` were, in that order, less than 12.6 µM and greater than 30%.
The corresponding values for `CC(C)CCCn1c(=O)[nH]c(=O)c2[nH]c(Cl)nc21` are less than 12.6 µM and greater than 30%.
The molecule `CCCCn1c(=O)n(C)c(=O)c2[nH]c(C#N)nc21` had an EC50 of less than 12.6 µM and an Efficacy greater than 30%.
As to `O=c1[nH]c(=O)n(CCCC(F)(F)F)c2nc(Cl)[nH]c12`, the EC50 was less than 12.6 µM and the Efficacy is greater than 30%.
For the molecule `CCn1c(=O)n(C)c(=O)c2[nH]c(Cl)nc21`, the EC50 was less than 12.6 µM and the Efficacy is greater than 30%.
`CCCCn1c(=O)n(CC)c(=O)c2[nH]c(Cl)nc21`: the EC50 was less than 12.6 µM and the Efficacy is greater than 30%.
With `C=CCCn1c(=O)[nH]c(=O)c2[nH]c(Cl)nc21`, the EC50 was less than 12.6 µM and the Efficacy was greater than 30%.
As to `Cn1c(=O)c2[nH]c(Cl)nc2n(CCCC#N)c1=O`, the EC50 is less than 12.6 µM and the Efficacy was greater than 30%.
In turn, `CCCCCCn1c(=O)[nH]c(=O)c2[nH]c(Cl)nc21` had a half-maximal effective concentration (EC50) of less than 12.6 µM and an Efficacy greater than 30%.
Molecule `O=c1[nH]c(=O)n(CCCCF)c2nc(Cl)[nH]c12` showed an EC50 of less than 12.6 µM and an Efficacy greater than 30%.
For the molecule `O=c1c2[nH]c(Cl)nc2n(CCCC(F)(F)F)c(=O)n1CCCC(F)(F)F`, the EC50 is less than 12.6 µM and the Efficacy is greater than 30%.
In turn, `O=c1[nH]c(=O)n(CC2CC2)c2nc(Cl)[nH]c12` had an EC50 of less than 12.6 µM and an Efficacy greater than 30%.
Consider `Cn1c(=O)c2[nH]c(Cl)nc2n(CCCC(F)(F)F)c1=O`, for which the EC50 is less than 12.6 µM and the Efficacy is greater than 30%.
`N#CCn1c(=O)c2[nH]c(Cl)nc2n(CCC2CC2)c1=O`: the EC50 was less than 12.6 µM and the Efficacy was greater than 30%.
The like results for `CCn1c(=O)c2[nH]c(Cl)nc2n(CC(F)(F)F)c1=O` were, in that order, less than 12.6 µM and greater than 30%.
Molecule `CCCn1c(=O)n(C)c(=O)c2[nH]c(Cl)nc21` had an EC50 of less than 12.6 µM and an Efficacy greater than 30%.
The like results for `N#CCn1c(=O)c2[nH]c(Cl)nc2n(CC#N)c1=O` were, in that order, less than 12.6 µM and greater than 30%.
The corresponding values for `CCCCCn1c(=O)n(C)c(=O)c2[nH]c(Cl)nc21` are less than 12.6 µM and greater than 30%.
`CCCCCn1c(=O)n(C)c(=O)c2[nH]c(Br)nc21` had an EC50 of less than 12.6 µM and an Efficacy greater than 30%.
As to `CCCCn1c(=O)[nH]c(=O)c2[nH]c(Cl)nc21`, the EC50 is less than 12.6 µM and the Efficacy is greater than 30%.
For `O=c1[nH]c(=O)n(CCCC2CC2)c2nc(Cl)[nH]c12`, the EC50 was less than 12.6 µM and the Efficacy is greater than 30%.
In turn, `CC(C)CCn1c(=O)[nH]c(=O)c2[nH]c(Cl)nc21` showed an EC50 of less than 12.6 µM and an Efficacy greater than 30%.
`O=c1[nH]c(=O)n(CCCCCF)c2nc(Cl)[nH]c12` showed an EC50 of less than 12.6 µM and an Efficacy greater than 30%.
Consider `CCCCCn1c(=O)[nH]c(=O)c2[nH]c(Cl)nc21`, for which the EC50 was less than 12.6 µM and the Efficacy is greater than 30%.
As for `CCCCn1c(=O)n(CC#N)c(=O)c2[nH]c(Cl)nc21`, the EC50 was less than 12.6 µM and the Efficacy was greater than 30%.
Regarding `O=c1[nH]c(=O)n(CC2CCCC2)c2nc(Cl)[nH]c12`, the EC50 is less than 12.6 µM and the Efficacy was greater than 30%.
Molecule `O=c1[nH]c(=O)n(CC(F)(F)F)c2nc(Cl)[nH]c12` had an EC50 of less than 12.6 µM and an Efficacy greater than 30%.
The like results for `O=c1[nH]c(=O)n(CCC2CCCC2)c2nc(Cl)[nH]c12` were, in that order, less than 12.6 µM and greater than 30%.
For the molecule `O=c1[nH]c(=O)n(CC2CCCCC2)c2nc(Cl)[nH]c12`, the EC50 is less than 12.6 µM and the Efficacy was greater than 30%.
The like results for `CCCCCCCCn1c(=O)[nH]c(=O)c2[nH]c(Cl)nc21` were, in that order, less than 12.6 µM and greater than 30%.
`N#CCn1c(=O)[nH]c(=O)c2[nH]c(Cl)nc21` had an EC50 of less than 12.6 µM and an Efficacy greater than 30%.
Turning to `C=CCCCn1c(=O)[nH]c(=O)c2[nH]c(Cl)nc21`, the EC50 was less than 12.6 µM and the Efficacy is greater than 30%.
Turning to `O=c1[nH]c(=O)n(CCC2CC2)c2nc(Cl)[nH]c12`, the EC50 was less than 12.6 µM and the Efficacy is greater than 30%.
The corresponding values for `CCCCCn1c(=O)n(C)c(=O)c2[nH]c(C#N)nc21` are less than 12.6 µM and greater than 30%.
Molecule `O=c1c2[nH]c(Cl)nc2n(CC(F)(F)F)c(=O)n1CCCC(F)(F)F` gave an EC50 of less than 12.6 µM and an Efficacy greater than 30%.
The corresponding values for `O=c1[nH]c(=O)n(CC2CCC2)c2nc(Cl)[nH]c12` are less than 12.6 µM and greater than 30%.
Turning to `CCC(C)Cn1c(=O)[nH]c(=O)c2[nH]c(Cl)nc21` (racemic), the EC50 was less than 12.6 µM and the Efficacy was greater than 30%.
The like results for `CCCn1c(=O)c2[nH]c(Cl)nc2n(CC(F)(F)F)c1=O` were, in that order, less than 12.6 µM and greater than 30%.
In the case of `CC(C)(C#N)CCCCn1c(=O)[nH]c(=O)c2[nH]c(Cl)nc21`, the EC50 was less than 12.6 µM and the Efficacy is greater than 30%.
`CCCn1c(=O)[nH]c(=O)c2[nH]c(Cl)nc21` had an EC50 of less than 12.6 µM and an Efficacy greater than 30%.
The corresponding values for `CC(C)CCCCCn1c(=O)[nH]c(=O)c2[nH]c(Cl)nc21` are less than 12.6 µM and greater than 30%.
On to `CCCC(C)Cn1c(=O)[nH]c(=O)c2[nH]c(Cl)nc21` (racemic), for which the EC50 is less than 12.6 µM and the Efficacy was greater than 30%.
On to `N#CCCCn1c(=O)[nH]c(=O)c2[nH]c(Cl)nc21`, for which the EC50 is less than 12.6 µM and the Efficacy is greater than 30%.
